These results are taken from patent publication US20130035326A1 (AMBIT BIOSCIENCES CORPORATION, priority 2009, published 2013).

A value given as a limit tells only on which side of the number the result lay.

Experiment [1] deals with MV4-11 cells. Nature of the experiment: MV4-11 cell proliferation assay (Alamar Blue). The settings on record: Homo sapiens, MV4-11, 72 h, 3 days incubation. It is filed as cell-based. The procedure, abridged:
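Flt3-ITD MV4-11 cells were serum-starved overnight in Iscove's with 0.5% FBS, then given compound at 9 half-log concentrations (0.5% DMSO) for 3 days at 37° C. Alamar Blue reduction was read after 3 h by fluorescence (560/590 nm). IC50 is the mean of duplicates versus negative control.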

For experiment [2], the target named is kinase panel containing either 359 or 386 distinct kinases. The experiment can be described thus: Selectivity score S10 from competition binding against a panel of kinases. The settings on record: compounds at 10 μM; panel of 386 distinct kinases. The gist of the method:
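Compounds were tested at 10 μM in competition binding against T7 phage-fused or HEK-293-expressed DNA-tagged kinases with immobilized affinity ligands, 1 h at room temperature. Bound kinase was quantified by qPCR as percent of DMSO control; S10 is the fraction of distinct kinases (mutants excluded) with POC below 10.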

In experiment [3] the target is T1, FLT3 kinase (Homo sapiens, UniProt P36888).
T1 construct: made in house; host or cells: T7 phage display or HEK-293 cells
T1 sequence (P36888 27-993): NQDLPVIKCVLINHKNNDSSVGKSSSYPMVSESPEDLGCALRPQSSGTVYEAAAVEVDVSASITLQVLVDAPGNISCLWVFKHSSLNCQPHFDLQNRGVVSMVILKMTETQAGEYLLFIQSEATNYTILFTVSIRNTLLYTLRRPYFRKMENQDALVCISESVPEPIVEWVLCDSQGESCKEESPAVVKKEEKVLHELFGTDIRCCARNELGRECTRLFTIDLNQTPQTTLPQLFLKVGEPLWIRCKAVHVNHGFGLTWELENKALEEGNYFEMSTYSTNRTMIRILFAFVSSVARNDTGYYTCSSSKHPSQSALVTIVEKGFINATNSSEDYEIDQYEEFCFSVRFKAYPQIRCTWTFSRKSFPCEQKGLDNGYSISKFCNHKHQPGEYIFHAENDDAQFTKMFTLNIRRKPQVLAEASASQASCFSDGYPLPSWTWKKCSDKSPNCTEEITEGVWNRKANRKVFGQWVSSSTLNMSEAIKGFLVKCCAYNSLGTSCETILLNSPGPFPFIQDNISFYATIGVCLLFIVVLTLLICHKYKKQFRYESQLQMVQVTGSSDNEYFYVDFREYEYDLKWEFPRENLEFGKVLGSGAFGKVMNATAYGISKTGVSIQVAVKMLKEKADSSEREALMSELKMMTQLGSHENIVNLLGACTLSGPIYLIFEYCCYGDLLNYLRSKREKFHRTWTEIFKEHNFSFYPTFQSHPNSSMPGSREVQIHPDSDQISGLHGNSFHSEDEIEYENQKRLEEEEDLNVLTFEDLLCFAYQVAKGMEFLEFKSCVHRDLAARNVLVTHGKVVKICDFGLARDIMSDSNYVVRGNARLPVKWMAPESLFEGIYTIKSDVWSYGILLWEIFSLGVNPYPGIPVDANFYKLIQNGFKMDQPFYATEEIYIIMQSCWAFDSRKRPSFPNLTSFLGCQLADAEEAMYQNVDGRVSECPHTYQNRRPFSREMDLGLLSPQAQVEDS
The experiment can be described thus: Competition binding assay, FLT3 Kd. The procedure, abridged: (§1)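 Kinases expressed as T7 phage fusions or in HEK-293 cells with DNA tags competed with test compound for immobilized biotinylated affinity ligand on streptavidin beads. Binding ran 1 hour at room temperature in SeaBlock/PBS/Tween/DTT buffer. Bound kinase was eluted with non-biotinylated ligand and quantified by qPCR; Kd from eleven-point threefold dilutions.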

The target in experiment [4] is T2, KIT kinase (Homo sapiens, UniProt P10721).
T2 construct: made in house; host or cells: T7 phage display or HEK-293 cells
T2 sequence (P10721 26-976): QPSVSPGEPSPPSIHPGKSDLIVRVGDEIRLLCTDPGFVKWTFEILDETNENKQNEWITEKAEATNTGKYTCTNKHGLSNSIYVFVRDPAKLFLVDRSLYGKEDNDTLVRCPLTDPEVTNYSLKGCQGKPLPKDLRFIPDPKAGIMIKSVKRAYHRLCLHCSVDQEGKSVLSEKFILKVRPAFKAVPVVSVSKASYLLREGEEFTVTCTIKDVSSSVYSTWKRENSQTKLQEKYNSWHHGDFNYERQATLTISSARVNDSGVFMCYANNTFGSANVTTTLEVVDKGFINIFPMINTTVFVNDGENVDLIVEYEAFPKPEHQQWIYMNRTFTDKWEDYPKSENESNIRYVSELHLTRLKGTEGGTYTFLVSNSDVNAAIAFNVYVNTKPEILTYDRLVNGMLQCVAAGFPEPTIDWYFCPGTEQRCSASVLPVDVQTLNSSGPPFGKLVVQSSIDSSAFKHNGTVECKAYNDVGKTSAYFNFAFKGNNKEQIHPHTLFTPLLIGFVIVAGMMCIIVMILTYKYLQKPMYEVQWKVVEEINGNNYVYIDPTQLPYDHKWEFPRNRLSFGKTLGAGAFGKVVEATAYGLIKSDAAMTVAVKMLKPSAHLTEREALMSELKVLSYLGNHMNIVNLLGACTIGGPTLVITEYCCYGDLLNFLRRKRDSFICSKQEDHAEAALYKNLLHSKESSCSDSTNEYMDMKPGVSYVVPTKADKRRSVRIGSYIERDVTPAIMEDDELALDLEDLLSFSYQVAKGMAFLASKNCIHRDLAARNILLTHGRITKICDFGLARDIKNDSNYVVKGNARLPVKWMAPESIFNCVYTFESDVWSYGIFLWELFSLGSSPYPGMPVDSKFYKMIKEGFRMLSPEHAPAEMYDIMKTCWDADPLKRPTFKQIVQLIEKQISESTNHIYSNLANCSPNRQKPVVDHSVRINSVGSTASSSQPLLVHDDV
Nature of the experiment: Competition binding assay, KIT Kd. The gist of the method: as §1

Experiment [5] deals with T3, CSF-1R kinase (Homo sapiens, UniProt P07333).
T3 construct: made in house; host or cells: T7 phage display or HEK-293 cells
T3 sequence (P07333 20-972): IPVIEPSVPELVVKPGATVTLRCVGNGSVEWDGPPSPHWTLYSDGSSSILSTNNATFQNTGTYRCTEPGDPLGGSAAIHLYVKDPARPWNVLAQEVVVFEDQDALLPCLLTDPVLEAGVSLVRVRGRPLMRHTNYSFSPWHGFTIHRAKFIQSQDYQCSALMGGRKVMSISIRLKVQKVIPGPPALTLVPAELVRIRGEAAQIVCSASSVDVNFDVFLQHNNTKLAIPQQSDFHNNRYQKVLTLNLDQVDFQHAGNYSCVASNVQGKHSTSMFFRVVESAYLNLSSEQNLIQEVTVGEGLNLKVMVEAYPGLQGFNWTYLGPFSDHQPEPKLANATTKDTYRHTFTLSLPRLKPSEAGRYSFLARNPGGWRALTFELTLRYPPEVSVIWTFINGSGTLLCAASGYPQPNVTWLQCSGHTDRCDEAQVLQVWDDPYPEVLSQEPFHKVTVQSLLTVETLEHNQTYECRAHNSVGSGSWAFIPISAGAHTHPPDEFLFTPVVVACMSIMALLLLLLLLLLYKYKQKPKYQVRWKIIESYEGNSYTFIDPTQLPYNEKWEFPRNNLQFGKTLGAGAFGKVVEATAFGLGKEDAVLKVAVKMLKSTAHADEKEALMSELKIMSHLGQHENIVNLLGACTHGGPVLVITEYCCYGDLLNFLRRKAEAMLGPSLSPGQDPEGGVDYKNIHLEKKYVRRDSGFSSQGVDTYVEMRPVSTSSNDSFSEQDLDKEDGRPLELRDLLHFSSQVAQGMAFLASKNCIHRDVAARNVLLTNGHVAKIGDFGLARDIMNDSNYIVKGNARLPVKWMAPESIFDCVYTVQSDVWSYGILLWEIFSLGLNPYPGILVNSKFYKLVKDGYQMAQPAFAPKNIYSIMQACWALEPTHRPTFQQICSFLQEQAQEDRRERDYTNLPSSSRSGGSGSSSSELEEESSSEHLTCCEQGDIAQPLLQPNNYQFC
The experiment can be described thus: Competition binding assay, CSF-1R Kd. The gist of the method:
as §1

As to `CC1(c2cc(NC(=O)Cc3ccc(-c4ccc(N)nc4)cc3)no2)CCC1.CS(=O)(=O)O` [Example 144, 5-(4-(2-((5-(1-methylcyclobutyl)isoxazol-3-yl)amino)-2-oxoethyl)phenyl)pyridin-2-aminium methanesulfonate], the IC50 in experiment [1] is ≤ 1 nM. Besides, the “Kinase specificty: S(10)-386 panel” value in experiment [2] is recorded as “B (0.1<B≦0.2 nM)”. For the same molecule, the Kd is ≤ 1 nM in experiment [3], ≤ 1 nM in experiment [4] and ≤ 10 nM in experiment [5].
Molecule `CS(=O)(=O)O.Cc1cc(-c2ccc(CC(=O)Nc3cc(C4(C)COC4)on3)cc2)cnc1N` [Example 145, 3-methyl-5-(4-(2-((5-(3-methyloxetan-3-yl)isoxazol-3-yl)amino)-2-oxoethyl)phenyl)pyridin-2-aminium methanesulfonate] yielded an IC50 in experiment [1] of 10 to 100 nM. Besides, the “Kinase specificty: S(10)-386 panel” value in experiment [2] is recorded as “A (A≦0.1)”. For the same molecule, the results for the Kd in experiment [3], in experiment [4] and in experiment [5] were ≤ 1 nM, 1 to 10 nM and ≤ 10 nM, respectively.
For `CC1(c2cc(NC(=O)Cc3ccc(-c4cnc(N)c(F)c4)cc3)no2)COC1.CS(=O)(=O)O` [Example 146, 3-fluoro-5-(4-(2-((5-(3-methyloxetan-3-yl)isoxazol-3-yl)amino)-2-oxoethyl)phenyl)pyridin-2-aminium methanesulfonate], the IC50 in experiment [1] is 1 to 10 nM. For the same molecule, in experiment [2], the “Kinase specificty: S(10)-386 panel” value is “A (A≦0.1)”. Moreover, the Kd in experiment [3] is ≤ 1 nM; in experiment [4] it was ≤ 1 nM; in experiment [5], ≤ 10 nM.
As to `CC(C)(C)c1cc(NC(=O)Cc2ccc(-c3cnc4[nH]c(=O)[nH]c4c3)cc2)no1` [Example 147, N-(5-tert-butylisoxazol-3-yl)-2-(4-(2-oxo-2,3-dihydro-1H-imidazo[4,5-b]pyridin-6-yl)phenyl)acetamide], in experiment [1], the IC50 was ≤ 1 nM. Besides, in experiment [2], the “Kinase specificty: S(10)-386 panel” value is on record as “B (0.1<B≦0.2 nM)”. Also, the dissociation constant Kd was 1 to 10 nM in experiment [3], 1 to 10 nM in experiment [4] and ≤ 10 nM in experiment [5].
Molecule `CC(C)(C)c1cc(NC(=O)Cc2ncc(-c3ccc(N)nc3)cc2F)no1.CS(=O)(=O)O` [Example 148, 6′-(2-(5-tert-butylisoxazol-3-ylamino)-2-oxoethyl)-5′-fluoro-3,3′-bipyridin-6-aminium methanesulfonate] had an IC50 in experiment [1] of 1 to 10 nM. Further, the “Kinase specificty: S(10)-386 panel” value in experiment [2] was “A (A≦0.1)”. Moreover, the Kd in experiment [3] is ≤ 1 nM; in experiment [4], ≤ 1 nM; in experiment [5] it was ≤ 10 nM.
In experiment [1], `Nc1ccc(-c2ccc(CC(=O)Nc3cc(C4(C(F)F)CC4)on3)cc2)cn1` [Example 149, 2-(4-(6-aminopyridin-3-yl)phenyl)-N-(5-(1-(difluoromethyl)cyclopropyl)isoxazol-3-yl)acetamide] registered an IC50 of 1 to 10 nM. Besides, the “Kinase specificty: S(10)-386 panel” value in experiment [2] is on record as “B (0.1<B≦0.2 nM)”. For the same molecule, the Kd was ≤ 1 nM in experiment [3], ≤ 1 nM in experiment [4] and ≤ 10 nM in experiment [5].
Regarding `CC(C)(C)c1cc(NC(=O)Cc2ccc(-c3cnc(N)cc3Cl)cc2)no1.CS(=O)(=O)O` [Example 150, 5-(4-(2-(5-tert-butylisoxazol-3-ylamino)-2-oxoethyl)phenyl)-4-chloropyridin-2-aminium methanesulfonate], in experiment [1], the IC50 fell in the range of 1 to 10 nM. Also, the “Kinase specificty: S(10)-386 panel” value in experiment [2] is “A (A≦0.1)”. Moreover, the equilibrium dissociation constant (Kd) is ≤ 1 nM in experiment [3], 1 to 10 nM in experiment [4] and ≤ 10 nM in experiment [5].
In turn, `CC(C)(C)c1cc(NC(=O)Cc2ccc(-c3cnc(N)cc3F)cc2)no1.CS(=O)(=O)O` [Example 151, 5-(4-(2-(5-tert-butylisoxazol-3-ylamino)-2-oxoethyl)phenyl)-4-fluoropyridin-2-aminium methanesulfonate] showed a half-inhibitory concentration (IC50) in experiment [1] of 1 to 10 nM. Besides, the “Kinase specificty: S(10)-386 panel” value in experiment [2] is reported as “B (0.1<B≦0.2 nM)”. Further, the Kd in experiment [3] was ≤ 1 nM; in experiment [4], 10 to 100 nM; in experiment [5] it was ≤ 10 nM.
The like results for `CC(C)(C)c1cc(NC(=O)Cc2ccc(-c3cc(F)c(N)nc3F)cc2)no1.CS(=O)(=O)O` [Example 152, 5-(4-(2-(5-tert-butylisoxazol-3-ylamino)-2-oxoethyl)phenyl)-3,6-difluoropyridin-2-aminium methanesulfonate] were, in that order, ≤ 1 nM, “A (A≦0.1)”, ≤ 1 nM, 1 to 10 nM and ≤ 10 nM.
`CC(F)(F)C1(c2cc(NC(=O)Cc3ccc(-c4ccc(N)nc4)cc3)no2)CC1` [Example 153]: the IC50 in experiment [1] was ≤ 1 nM. For the same molecule, the “Kinase specificty: S(10)-386 panel” value in experiment [2] is listed as “B (0.1<B≦0.2 nM)”. For the same molecule, the values for the Kd in experiment [3], in experiment [4] and in experiment [5] were ≤ 1 nM, 1 to 10 nM and ≤ 10 nM, respectively.
For the molecule `CC(C)(C)c1cc(NC(=O)Cc2ccc(-c3ccc(N)nc3)nc2)no1` [Example 155], the IC50 in experiment [1] lay in the range of 10 to 100 nM. For the same molecule, in experiment [2], the “Kinase specificty: S(10)-386 panel” value is given as “A (A≦0.1)”. Also, the Kd was ≤ 1 nM in experiment [3], ≤ 1 nM in experiment [4] and 100 to 500 nM in experiment [5].
As for `CC(C)(C)c1cc(NC(=O)Cc2ccc(-c3cnc(N)cc3C(F)(F)F)cc2)no1` [Example 156], the IC50 in experiment [1] fell in the range of 10 to 100 nM. Further, in experiment [2], the “Kinase specificty: S(10)-386 panel” value was “A (A≦0.1)”. In addition, the Kd in experiment [3] is ≤ 1 nM; in experiment [4], 1 to 10 nM; in experiment [5] it was 10 to 100 nM.
For the molecule `COc1cc(N)ncc1-c1ccc(CC(=O)Nc2cc(C(C)(C)C)on2)cc1` [Example 157], in experiment [1], the IC50 is 1 to 10 nM. In addition, the “Kinase specificty: S(10)-386 panel” value in experiment [2] was “A (A≦0.1)”. Also, the Kd in experiment [3] was ≤ 1 nM; in experiment [4], 1 to 10 nM; in experiment [5] it was 10 to 100 nM.
`Cc1cc(-c2ccc(CC(=O)Nc3cc(C4(C)CC4)on3)cc2)cnc1N` [Example 158]: the IC50 in experiment [1] lay within 1 to 10 nM. In experiment [2], the “Kinase specificty: S(10)-386 panel” value is given as “A (A≦0.1)”. Also, the Kd in experiment [3] is ≤ 1 nM; in experiment [4], ≤ 1 nM; in experiment [5], ≤ 10 nM.
For the molecule `CC(F)(F)C1(c2cc(NC(=O)Cc3ccc(-c4ccc(N)nc4F)cc3)no2)CC1` [Example 159], the IC50 in experiment [1] is ≤ 1 nM. The “Kinase specificty: S(10)-386 panel” value in experiment [2] is listed as “A (A≦0.1)”. The Kd was 1 to 10 nM in experiment [3], 1 to 10 nM in experiment [4] and ≤ 10 nM in experiment [5].
In the case of `CC1(c2cc(NC(=O)Cc3ccc(-c4cnc(N)c(Cl)c4)cc3)no2)CC1` [Example 160], the IC50 in experiment [1] is ≤ 1 nM. For the same molecule, the “Kinase specificty: S(10)-386 panel” value in experiment [2] is reported as “B (0.1<B≦0.2 nM)”. In addition, the Kd in experiment [3] is ≤ 1 nM; in experiment [4], ≤ 1 nM; in experiment [5], ≤ 10 nM.
`CC1(c2cc(NC(=O)Cc3ccc(-c4cnc(N)c(C(F)(F)F)c4)cc3)no2)CC1` [Example 161]: the IC50 in experiment [1] is ≤ 1 nM. Further, the “Kinase specificty: S(10)-386 panel” value in experiment [2] is listed as “B (0.1<B≦0.2 nM)”. The Kd in experiment [3] is ≤ 1 nM; in experiment [4] it was 1 to 10 nM; in experiment [5] it was ≤ 10 nM.
Regarding `Cc1nc(N)ccc1-c1ccc(CC(=O)Nc2cc(C3(C)CC3)on2)cc1` [Example 162], the IC50 in experiment [1] fell in the range of 10 to 100 nM. In addition, the “Kinase specificty: S(10)-386 panel” value in experiment [2] was “A (A≦0.1)”. The Kd in experiment [3] was ≤ 1 nM; in experiment [4] it was ≤ 1 nM; in experiment [5], ≤ 10 nM.
For the molecule `CC(C)(C)c1cc(NC(=O)Cc2ccc(-c3cnc(N)c(C(F)F)c3)cc2)no1` [Example 163], the half-inhibitory concentration (IC50) in experiment [1] was ≤ 1 nM. Moreover, in experiment [2], the “Kinase specificty: S(10)-386 panel” value is “B (0.1<B≦0.2 nM)”. For the same molecule, the Kd is ≤ 1 nM in experiment [3], 1 to 10 nM in experiment [4] and ≤ 10 nM in experiment [5].
As to `COc1cc(-c2ccc(CC(=O)Nc3cc(C4(C)CC4)on3)cc2)cnc1N` [Example 164], in experiment [1], the IC50 fell in the range of 1 to 10 nM. In experiment [2], the “Kinase specificty: S(10)-386 panel” value is “B (0.1<B≦0.2 nM)”. In addition, the Kd in experiment [3] was ≤ 1 nM; in experiment [4], ≤ 1 nM; in experiment [5] it was ≤ 10 nM.
